Key:
Type in all cases: in vivo
[1] = DHA level of red blood cells in dogs given nicotinol DHA via oral route
Source text: (§1) Effect of nicotinol DHA on the fatty acid composition of plasma and red blood cells in dogs treated via oral route. The objective of this first study was to assay total DHA in the blood (plasma and red blood cells) of dogs given nicotinol DHA via oral route.
(§2) Two groups of 10 dogs were used:
(§3) Group 2: nicotinol DHA at 2 g per day.
(§4) All the animals were given either a placebo or nicotinol DHA at 2 g per day via oral route for 28 days. Blood samples were taken at D1 (control), D7, D14, D21 and D28.
(§5) The total lipids of the plasma (500 μL) and of the red blood cells (≈500 mg, the weighing of red blood cells is more accurate than measuring volume) were extracted with 4 mL of hexane/isopropanol mixture ([…]) in an acid medium (3M HCl, 500 μL) in the presence of margaric acid as internal standard (100 μg). After agitation and centrifugation (2000 g, 15 minutes, 10° C.) the organic phase was separated. A second extraction with 2 mL of the same solvent was performed under the same conditions. The organic phases were washed with 2 mL of saline water ([…]). The solvents were evaporated under a stream of nitrogen at 40° C.
(§6) The total lipids derived from the plasma and red blood cells were then saponified (1 mL of 0.5M NaOH in methanol, 70° C., 30 minutes) then converted to methyl eaters (1 mL, 14% BF3 in methanol, 70° C., 15 minutes). After hydrolysio (4 mL […]) they were extracted with 4 then 2 mL of pentane. The organic phases were washed with 2 mL of saline water (9% NaCl). The solvents were evaporated under a stream of nitrogen at 40° C. The methyl esters were re-dissolved in 200 μL hexane for the plasma and red blood cells. The extracted fatty acid methyl esters were analysed by gas phase chromatography. The chromatograph (Agilent Technologies 6890N) was equipped with a split injector heated to 260° C. (1:10 division ratio), capillary column (length 60 m, diameter 0.25 mm) with BPX70 stationary phase (70% cyanopropylpolyphenylene-siloxane; thickness 0.25 μm) and flame ionization detector heated to 260° C. (hydrogen: 40 mL/min, air: 450 mL/min). The vector gas was helium (constant flow rate 1.5 mL/min). The temperature of the column was initially 150° C. and brought at a temperature gradient of 1.3° C./min up to 220° C. then 40° C./min to reach 260° C. for 5 minutes. The retention times of standard methyl esters allowed identification of the extracted fatty acid methyl esters.
(§7) The DHA was quantitated relative to the internal standard (C17:0) added in known quantity to the sample before extraction of the total lipids. It is expressed in μg/mL for the plasma, in μg/g for the red blood cells. The values are given as a mean f standard deviation (in general n=10). The significant differences are shown by a Student's test with 5% threshold.

[2] = DHA plasma level in dogs given nicotinol DHA via oral route
Source text: as §1, §2, §3, §4, §5, §6, §7

[3] = DHA plasma level in rats given panthenol DHA via oral force-feeding; conditions: 300 and 1000 mg/kg per day oral, 7 days (FIG. 1)
Procedure: (§8) Incorporation of DHA in the plasma and red blood cells of rats receiving panthenol […] via oral route. The objective of this study was to assay total DHA in the blood (plasma and red blood cells) of rats given panthenol DHA via oral force-feeding for 7 days.
(§9) Three groups of 4 rats (2 male and 2 female) were used:
(§10) Group 1: control group (olive oil)
(§11) Group 2: panthenol DHA at 300 mg/kg per day.
(§12) Group 3: panthenol DHA at 1000 mg/kg per day.
(§13) The total lipids of the plasma (500 μL) and red blood cells were extracted with a hexane/isopropanol mixture (3:2, v/v) in an acid medium (3M HCl, 1 mL) in the presence of margaric acid as internal standard. The total lipids from the plasma and red blood cell were saponified (i mL 0.5M NaOH in methanol, 70° C., 30 minutes) then converted to methyl esters (1 mL, 14% BF) in methanol, 70° C., 15 minutes). The fatty acid methyl esters were extracted with pentane then analysed by gas phase chromatography. The chromatograph (Agilent Technologies 6890N) was equipped with a split injector heated to 250° C. (division ratio 1:10) and a capillary column (length 60 m, diameter 0.25 mm) with BPX70 stationary phase (70% cyanopropylpolyphenylene-siloxane; thickness 0.25 μm). The vector gas was helium. […]
(§14) The DHA was quantitated in relation to the internal standard (C17:0) added in known quantity to the sample before extraction of the total lipids. […]

[4] = DHA level of red blood cells in rats given panthenol DHA via oral force-feeding; conditions: 300 and 1000 mg/kg per day oral, 7 days (FIG. 1)
Procedure: as §8, §9, §10, §11, §12, §13, §14

[5] = DHA concentration in human red blood cells after oral panthenol DHA (clinical trial); conditions: irrespective of the dose (1, 2, 4 g/day), 28 days
Procedure: Concentration of DHA in human red blood cells after absorption of panthenol DHA.
The objective of this clinical trial was to determine total DHA concentrations in the red blood cells of volunteers given a once daily oral dose of panthenol DHA for 28 days. Three doses of panthenol […] were tested in this trial: 1, 2 and 4 g/day. Twelve persons were included in this trial, 3 were given a placebo (without panthenol DHA) and 9 were given panthenol DHA.
Blood samples were taken before administering panthenol DHA (corresponding to the baseline) and thereafter at days 4, 7, 10 14, 15, 19, 22, 25 and 29 to determine the DHA concentrations in the red blood cells. Two blood samples of 4 mL each were taken in tubes containing EDTA. The tubes were centrifuged at 3000 g for 15 minutes at ambient temperature within 30 minutes after the taking of the sample. […]
The lipids were extracted from the red blood cell samples (≈500 mg) using a hexane/isopropanol mixture (3:2 v/v) in an acid medium in the presence of margaric acid as internal standard (100 μg). […] After extraction with pentane, the extracted fatty acid methyl esters were analysed by gas phase chromatography. […]
The DHA was quantitated relative to the internal standard (C17:0) added in known quantity to the sample before extraction of the total lipids. […]

[6] = 2 g/D oral, significant at every treatment time vs control group
[7] = group 2, D −1 (start of the experiment, before treatment with 2 g/D oral)

SMILES | DHA level of red blood cells, mean ([1]; 2 g/D oral, D 7) [µg/mL] | DHA level of red blood cells, mean ([1]; 2 g/D oral, D 14) [µg/mL] | DHA level of red blood cells, mean ([1]; 2 g/D oral, D 21) [µg/mL] | DHA level of red blood cells, mean ([1]; 2 g/D oral, D 28) [µg/mL] | effect of treatment on DHA level of red blood cells [1, 6] | DHA level of red blood cells, mean [1, 7] [µg/mL] | DHA plasma level, mean ([2]; 2 g/D oral, D 7) [µg/mL] | DHA plasma level, mean ([2]; 2 g/D oral, D 14) [µg/mL] | DHA plasma level, mean ([2]; 2 g/D oral, D 21) [µg/mL] | DHA plasma level, mean ([2]; 2 g/D oral, D 28) [µg/mL] | effect of treatment on plasma DHA [2, 6] | DHA plasma level, mean [2, 7] [µg/mL] | amount of DHA found in the plasma ([3]; female rats) | amount of DHA found in the plasma ([3]; male rats) | amount of DHA found in the red blood cells ([4]; female rats) | amount of DHA found in the red blood cells ([4]; male rats) | DHA level in human red blood cells versus placebo [5]
CC/C=C\C/C=C\C/C=C\C/C=C\C/C=C\C/C=C\CCC(=O)OCc1cccnc1 [nicotinol DHA] | 4.7 | 7.1 | 8.3 | 8.7 | rise in the DHA level of red blood cells | 1.7 | 22.1 | 23.7 | 27.9 | 32.6 | increase in plasma DHA | 3.8 | – | – | – | – | –
CC/C=C\C/C=C\C/C=C\C/C=C\C/C=C\C/C=C\CCC(=O)OCCCNC(=O)[C@@H](O)C(C)(C)CO [panthenol DHA, panthenyl docosahexaenoate] | – | – | – | – | – | – | – | – | – | – | – | – | only increased with the higher dose | dependent on the dose | only increased with the higher dose | dependent on the dose | increased compared with the placebo group
